Assay results published in PubChem BioAssay AID256 (DTP/NCI, 2004).
Several values for one entry are separate records, joined by “and”; a condition that tells them apart may be missing. Equal entries are not always repeated. Toxic doses and inconclusive results are not listed. The calls were made as follows: active = survival T/C of 150% or more; inactive = T/C below 125% in these data.

System: CD2F1 mice, L1210 leukemia ip, survival T/C
Experiment: NCI In Vivo Anticancer Drug Screen. Data for tumor model L1210 Leukemia (intraperitoneal) in CD2F1 (CDF1) mice
Conditions: higher = longer survival
Procedure, shortened: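 Activity against a transplanted murine tumor was judged by comparing the compound group with a vehicle group. The outcome in the treated animals was divided by that in the controls.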

[1] = endpoint: mean survival time, dose: 100.0 mg/kg/injection, schedule: Q01DX001 (ip), vehicle: Klucel (hydroxypropylcellulose) (HPC)
[2] = endpoint: mean survival time, dose: 200.0 mg/kg/injection, schedule: Q01DX001 (ip), vehicle: Klucel (hydroxypropylcellulose) (HPC)
[3] = endpoint: mean survival time, dose: 400.0 mg/kg/injection, schedule: Q01DX001 (ip), vehicle: Klucel (hydroxypropylcellulose) (HPC)
[4] = endpoint: mean survival time, dose: 100.0 mg/kg/injection, schedule: Q04DX003 (ip), vehicle: saline with Tween-80
[5] = endpoint: mean survival time, dose: 200.0 mg/kg/injection, schedule: Q04DX003 (ip), vehicle: saline with Tween-80
[6] = endpoint: mean survival time, dose: 400.0 mg/kg/injection, schedule: Q04DX003 (ip), vehicle: saline with Tween-80
[7] = endpoint: mean survival time, dose: 100.0 mg/kg/injection, schedule: Q04DX003 (ip), vehicle: saline
[8] = endpoint: mean survival time, dose: 200.0 mg/kg/injection, schedule: Q04DX003 (ip), vehicle: saline
[9] = endpoint: mean survival time, dose: 400.0 mg/kg/injection, schedule: Q04DX003 (ip), vehicle: saline
[10] = endpoint: mean survival time, dose: 100.0 mg/kg/injection, schedule: Q01DX009 (ip), vehicle: saline with Tween-80
[11] = endpoint: mean survival time, dose: 200.0 mg/kg/injection, schedule: Q01DX009 (ip), vehicle: saline with Tween-80
[12] = endpoint: mean survival time, dose: 400.0 mg/kg/injection, schedule: Q01DX009 (ip), vehicle: saline with Tween-80

Measured: T/C

O=C(/C=C/c1ccccn1)c1ccc(Cl)cc1
inactive: [1] 97 % of control | [2] 97 % of control | [3] 105 % of control

CCN(C(=O)Nc1cccc2ccccc12)c1ccccc1
inactive: [4] 104 % of control | [5] 101 % of control | [6] 109 % of control

Cc1ccc(Cl)cc1NC(=O)Nc1nccs1
inactive: endpoint: mean survival time, dose: 50.0 mg/kg/injection, schedule: Q01DX009 (ip), vehicle: Klucel (hydroxypropylcellulose) (HPC) 91 % of control | endpoint: mean survival time, dose: 100.0 mg/kg/injection, schedule: Q01DX009 (ip), vehicle: Klucel (hydroxypropylcellulose) (HPC) 91 % of control | endpoint: mean survival time, dose: 200.0 mg/kg/injection, schedule: Q01DX009 (ip), vehicle: Klucel (hydroxypropylcellulose) (HPC) 102 % of control

O=C(O)C1C2CC3OC(=O)C1C3C2 (configuration not stated)
inactive: [7] 94 % of control | [8] 93 % of control | [9] 96 % of control

O=C1[O][Hg][c]2cccc3cccc1c23
inactive: endpoint: mean survival time, dose: 2.5 mg/kg/injection, schedule: Q01DX009 (ip), vehicle: saline with Tween-80 88 % of control | endpoint: mean survival time, dose: 5.0 mg/kg/injection, schedule: Q01DX009 (ip), vehicle: saline with Tween-80 94 % of control | endpoint: mean survival time, dose: 10.0 mg/kg/injection, schedule: Q01DX009 (ip), vehicle: saline with Tween-80 95 % of control

CC/C(=N/O)c1ccccc1
inactive: [10] 98 % of control | [11] 92 % of control | [12] 103 % of control

CN(C1=CC(=O)C(=O)c2ccccc21)c1ccccc1
inactive: endpoint: mean survival time, dose: 75.0 mg/kg/injection, schedule: Q01DX001 (ip), vehicle: saline 97 % of control | endpoint: mean survival time, dose: 150.0 mg/kg/injection, schedule: Q01DX001 (ip), vehicle: saline 95 % of control | endpoint: mean survival time, dose: 300.0 mg/kg/injection, schedule: Q01DX001 (ip), vehicle: saline 100 % of control

O=C(CC(O)(C(F)(F)F)C(F)(F)F)c1ccc(Cl)cc1
inactive: endpoint: mean survival time, dose: 50.0 mg/kg/injection, schedule: Q01DX009 (ip), vehicle: other 103 % of control | endpoint: mean survival time, dose: 100.0 mg/kg/injection, schedule: Q01DX009 (ip), vehicle: other 103 % of control | [4] 107 % of control | endpoint: mean survival time, dose: 200.0 mg/kg/injection, schedule: Q01DX009 (ip), vehicle: other 87 % of control | [5] 107 % of control

CNC(=O)OCc1c(COC(=O)NC)c(-c2ccccc2)n(C)c1-c1ccccc1
inactive: endpoint: mean survival time, dose: 3.12 mg/kg/injection, schedule: Q01DX009 (ip), vehicle: distilled water + Tween-80 111 % of control | endpoint: mean survival time, dose: 6.25 mg/kg/injection, schedule: Q01DX009 (ip), vehicle: distilled water + Tween-80 111 % of control | endpoint: mean survival time, dose: 50.0 mg/kg/injection, schedule: Q01DX009 (ip), vehicle: distilled water + Tween-80 111 % of control

O=C1CC(c2ccccc2)=NCCN1
inactive: [1] 100 % of control | [2] 102 % of control | [3] 103 % of control

Cc1cccc(C)c1N=C(NO)c1ccccc1
inactive: endpoint: mean survival time, dose: 100.0 mg/kg/injection, schedule: Q01DX001 (ip), vehicle: saline 102 % of control | [7] 106 % of control | endpoint: mean survival time, dose: 200.0 mg/kg/injection, schedule: Q01DX001 (ip), vehicle: saline 100 % of control | [8] 112 % of control | endpoint: mean survival time, dose: 400.0 mg/kg/injection, schedule: Q01DX001 (ip), vehicle: saline 90 % of control | [9] 100 % of control

CCOC(=O)C(Cc1ccccc1C(=O)NC)c1ccccc1 (configuration not stated)
inactive: [4] 94 % of control | [5] 94 % of control | endpoint: mean survival time, dose: 400.0 mg/kg/injection, schedule: Q01DX009 (ip), vehicle: saline sonified 92 % of control | [6] 100 % of control

OC(c1ccccc1)c1cc(-c2ccccc2)c(-c2ccccc2)cc1C(O)c1ccccc1 (configuration not stated)
inactive: endpoint: mean survival time, dose: 12.5 mg/kg/injection, schedule: Q04DX003 (ip), vehicle: saline with Tween-80 102 % of control | endpoint: mean survival time, dose: 25.0 mg/kg/injection, schedule: Q04DX003 (ip), vehicle: saline with Tween-80 114 % of control

CCCCN(CCCC)CCCN1C(=O)c2ccccc2C1=O
inactive: endpoint: mean survival time, dose: 1.9 mg/kg/injection, schedule: Q01DX009 (ip), vehicle: saline 97 % of control | endpoint: mean survival time, dose: 3.7 mg/kg/injection, schedule: Q01DX009 (ip), vehicle: saline 107 % of control | endpoint: mean survival time, dose: 7.5 mg/kg/injection, schedule: Q01DX009 (ip), vehicle: saline 100 % of control | endpoint: mean survival time, dose: 15.0 mg/kg/injection, schedule: Q01DX009 (ip), vehicle: saline 87 % of control | endpoint: mean survival time, dose: 30.0 mg/kg/injection, schedule: Q01DX009 (ip), vehicle: saline 89 % of control and 105 % of control

O=[N+]([O-])c1ccc2nc3c(nc2c1)-c1cccc2cccc-3c12
inactive: [10] 98 % of control | [11] 98 % of control | [12] 98 % of control

COc1cc2c(cc1OC)[C@@H]1C(=O)c3ccc4c(c3O[C@@H]1CO2)C[C@H](C(C)C)O4
inactive: endpoint: median survival time, dose: 6.25 mg/kg/injection, schedule: Q01DX005 (ip), vehicle: Klucel (hydroxypropylcellulose) (HPC) 107 % of control | endpoint: median survival time, dose: 12.5 mg/kg/injection, schedule: Q01DX005 (ip), vehicle: Klucel (hydroxypropylcellulose) (HPC) 115 % of control | endpoint: median survival time, dose: 18.0 mg/kg/injection, schedule: Q01DX005 (ip), vehicle: Klucel (hydroxypropylcellulose) (HPC) 113 % of control | endpoint: median survival time, dose: 25.0 mg/kg/injection, schedule: Q01DX005 (ip), vehicle: Klucel (hydroxypropylcellulose) (HPC) 115 % of control | endpoint: median survival time, dose: 30.0 mg/kg/injection, schedule: Q01DX005 (ip), vehicle: Klucel (hydroxypropylcellulose) (HPC) 118 % of control | endpoint: median survival time, dose: 100.0 mg/kg/injection, schedule: Q01DX005 (ip), vehicle: Klucel (hydroxypropylcellulose) (HPC) 100 % of control

CCNC(=O)Nc1nc2ccccc2s1
inactive: endpoint: mean survival time, dose: 100.0 mg/kg/injection, schedule: Q04DX002 (ip), vehicle: saline with Tween-80 103 % of control | endpoint: mean survival time, dose: 200.0 mg/kg/injection, schedule: Q04DX002 (ip), vehicle: saline with Tween-80 103 % of control | endpoint: mean survival time, dose: 400.0 mg/kg/injection, schedule: Q04DX002 (ip), vehicle: saline with Tween-80 92 % of control

C/C(=N\NC(=S)N1CC2CCC(CC2)C1)c1nccs1
inactive: endpoint: median survival time, dose: 3.13 mg/kg/injection, schedule: Q01DX009 (ip), vehicle: saline with Tween-80 103 % of control | endpoint: median survival time, dose: 6.25 mg/kg/injection, schedule: Q01DX009 (ip), vehicle: saline with Tween-80 112 % of control | endpoint: median survival time, dose: 12.5 mg/kg/injection, schedule: Q01DX009 (ip), vehicle: saline with Tween-80 113 % of control and 114 % of control and 110 % of control | endpoint: median survival time, dose: 25.0 mg/kg/injection, schedule: Q01DX009 (ip), vehicle: saline with Tween-80 115 % of control and 104 % of control | endpoint: median survival time, dose: 50.0 mg/kg/injection, schedule: Q01DX009 (ip), vehicle: saline with Tween-80 120 % of control and 95 % of control and 98 % of control

O=P(O)(c1ccccc1Br)c1ccccc1Br
inactive: endpoint: mean survival time, dose: 50.0 mg/kg/injection, schedule: Q04DX003 (ip), vehicle: saline 101 % of control | [7] 97 % of control | [8] 94 % of control

OC1(c2ccccc2)c2cscc2C(O)(c2ccccc2)c2c(Cl)sc(Cl)c21 (configuration not stated)
inactive: endpoint: mean survival time, dose: 6.25 mg/kg/injection, schedule: Q01DX001 (ip), vehicle: saline with Tween-80 100 % of control | endpoint: mean survival time, dose: 12.5 mg/kg/injection, schedule: Q01DX001 (ip), vehicle: saline with Tween-80 95 % of control | endpoint: mean survival time, dose: 25.0 mg/kg/injection, schedule: Q01DX001 (ip), vehicle: saline with Tween-80 88 % of control
